The subject of test [1] is E. coli (pRS202) expressing T4MO. The test can be described thus: Alkene degradation assay, E. coli (pRS202) expressing T4MO. The format is cell-based, Escherichia coli DH10B. How it is done:
Escherichia coli DH10B containing the plasmid pRS202 (Pikus et al., Biochemistry, 35:9106–9119 (1996); Pikus et al., Biochemistry, 36:9283–9289 (1997)) was prepared in a similar manner except it was grown at 37° C. in LB media, and was resuspended to an OD550 of 4 in LB media with 0.3–1 mM IPTG to induce expression of T4MO.
(§1) To determine the range of alkenes that could be degraded by the toluene monooxygenase and the degradation kinetics of the toluene monooxygenases, 5-ml aliquots of the resuspended cultures were dispensed to 25-ml serum vials and crimp sealed with Teflon™ faced septa. Gaseous alkene substrates were added as pure compounds by using a gas-tight syringe, and other alkene substrates were added from stock solutions (20% in dimethylformamide). The amount of individual alkene substrates added were as follows: 1-butene, 2-butene, and 1,3-butadiene, 2.2 μM; epoxy butane, 1,3-butadiene monoxide, and epichlorohydrine, 8 μM; 1- and 2-pentene, 9 μM; hexene, 4 μM; octadiene, 4.5 μM; 2-chloropropene, 11 μM; and, 2,3-dichloropropene, 12 μM unless otherwise indicated. The serum vials were then placed horizontally on a rotary shaker operating at 100 rpm. During incubation the temperature was maintained between 20–22° C. for the Pseudomonads and at 37° C. for E. coli. The serum vials were periodically removed from the shaker and a 10–25 μl portion of the headspace gas was withdrawn through the septa and injected onto a gas chromatograph (GC) equipped with a 30 m Vocol column (Supelco Inc. Bellefonte, Pa.) maintained at 160° C., and a flame ionization detector. This allowed the monitoring of both the alkene compounds as well as the epoxide products. The same protocol was used to detect the formation of 1,2-butanediol and butadiene diepoxide, except that 1 μl of the culture media was injected onto the column rather than the headspace gas.

Test [2] deals with Pseudomonas mendocina ENVpmx1. The test can be described thus: Alkene degradation assay, T4MO deficient strain Pseudomonas mendocina ENVpmx1. The format is cell-based.
From the text: (§2) Pseudomonas mendocina KR1 (Yen et al., J. Bacteriol., 173:5315–5327 (1991)), the T4MO mutant of KR1 Pseudomonas mendocina ENVpmx1 (McClay et al., The 97th Annual Meeting of ASM, Abstract K36, page 348 (1997)), Pseudomonas pickettii PKO1 (Byrne et al., Gene, 154:65–70 (1995)), Burkholderia cepacia G4 (Shields et al., Appl. Environ. Microbiol., 55:1624–1629 (1989)), Burkholderia sp. strain ENVBF1 (McClay et al., Appl. Environ. Microbiol., 62:2716–2722 (1996)), and Pseudomonas sp. strain ENVPC5 (McClay et al., 1996, supra) were cultured overnight at 30° C. in shake flasks containing basal salts medium (BSM; 10) supplemented with 0.4% sodium glutamate. Toluene was included in the vapor phase when induction of the toluene oxygenases was desired. Prior to substrate degradation assays the cultures were harvested by centrifugation and resuspended in BSM to an optical density at 550 nm (OD550) of 2, unless otherwise indicated. A standard curve of optical density vs. protein concentration for each strain was used to calculate the amount of protein per ml of the resuspended cultures.
as §1

A further test concerns wild type organisms. The experiment in a line: Alkene oxidation and epoxide detection (GC, PNBP), wild type organisms. The format is cell-based. Particulars: for epoxide detection during oxidation: wild type organisms. The procedure:
as §1
The only epoxides relevant to this study that were commercially available were 1,3-butadiene mono-, and diepoxide. These were used in GC analyses to determine retention times and to quantitate the conversion of 1,3-butadiene to the corresponding epoxides. To verify that the observed peaks were epoxides, a modification of the method of van Hylckama et al. (van Hylckama et al., Appl. Environ. Microbiol., 62:3304–3312 (1996)) was used, whereby epoxides were conjugated with PNBP to form intensely colored adducts of the epoxides. Serum vials were prepared as before, except that prior to sealing the vials, Durham tubes were placed inside the vials, with the opening of the Durham tube extending out of the liquid. The substrate was then added and the vials were incubated with moderate shaking at a 45° angle to prevent the culture liquid from entering the Durham tube. The transformation of the alkenes was monitored by GC analysis. […] The vials were then allowed to incubate for 8 hours before they were opened and the epoxide containing PNBP withdrawn. The total volume of PNBP solution was combined with an equal volume of acetone-triethylamine (50:50) and mixed rapidly. Epoxide/PNBP adducts were detected by spectra analysis (400–700 nm).

In test [3] the test system is Burkholderia sp. strain ENVBF1. The experiment in a line: Alkene degradation assay, whole cells of Burkholderia sp. strain ENVBF1 (T4MO). The class given is cell-based.
From the text: as §2, §1

A further test relates to Burkholderia cepacia G4. The experiment in a line: Alkene degradation assay, whole cells of Burkholderia cepacia G4 (T2MO). The format is cell-based. The note with it: for alkene degraded that was detected as the epoxide product: toluene induced G4, 4.4 μmoles 1,3-butadiene or 2.2 μmoles 2-butene.
From the text: as §2, §1

For test [4], the system named is Pseudomonas sp. strain ENVPC5. The test can be described thus: Alkene degradation assay, whole cells of Pseudomonas sp. strain ENVPC5 (T4MO). The format is cell-based. The note with it: for added substrate degraded: in 20 hours.
From the text: as §2, §1

In test [5] the test system is Pseudomonas mendocina KR1. The experiment in a line: Alkene degradation assay, whole cells of Pseudomonas mendocina KR1 (T4MO). The format is cell-based.
From the text: as §2, §1

Test [6] relates to Pseudomonas sp. strain ENVPC5. The experiment in a line: Enantiomeric ratio of monoepoxides (chiral GC), strain ENVPC5. Particulars: PC5. The class given is cell-based. The procedure:
(§3) To determine the ratio of R and S isomers of the epoxides formed from the oxidation of the alkenes, samples were analyzed for the presence of the epoxides and alkenes by gas chromatography as described above. When the epoxide concentration neared its maximum, or when the 80–90% of the substrate was degraded, the enantiomeric ratio of epoxides produced was determined by injecting a sample of the headspace gas onto a GC equipped with a chiral separation column (RT-BDEXSE; Restek, Inc., Bellefonte, Pa.) and a flame ionization detector. The column was maintained at 50° C.

In test [7] the test system is Burkholderia sp. strain ENVBF1. The experiment in a line: Enantiomeric ratio of monoepoxides (chiral GC), strain ENVBF1. The format is cell-based. The procedure:
as §3

In test [8] the test system is Pseudomonas mendocina KR1 (T4MO). The experiment in a line: Enantiomeric ratio of monoepoxides (chiral GC), strain KR1. The format is cell-based. How it is done: as §3
Test [9] relates to Pseudomonas pickettii PKO1 (T3MO). The test can be described thus: Enantiomeric ratio of monoepoxides (chiral GC), strain PKO1. The format is cell-based. Particulars: KO1 (PKO1). The procedure:
as §3

The subject of test [10] is Burkholderia cepacia G4 (T2MO). The experiment in a line: Enantiomeric ratio of monoepoxides (chiral GC), strain G4. The format is cell-based. The procedure: as §3
Setting [11] is: following 30 minutes incubation.
[12] abbreviates: ENVBF1, following 30 minutes incubation.
Where [13] appears, read: rate determined after 60 minutes of incubation.

Consider hexene, for which the “degradation by the clone of T4MO” value in [1] is listed as “degraded”. In test [2], the “degradation compared with the wild type strains” value was “at a greater rate than the wild type strains” and the “epoxide detection during oxidation” value was “no epoxides were detected”. Moreover, the “epoxide detection during oxidation” value in the test on wild type organisms was “no epoxides were detected”.
Turning to `C=CC1CO1` (stereo not shown) [BME, 1,3-butadiene monoepoxide], the epoxide oxidized in test [3] (induced ENVBF1, 24 hours) was 13.4 µmol; in the test with Burkholderia cepacia G4 (uninduced G4, first hour) it was “less than 1 μmole”. Moreover, the epoxide degraded entry in [3] (uninduced ENVBF1, 24 hours) was “less than 1.3 μmoles”; with Burkholderia cepacia G4 (induced G4 in the presence of butadiene, approximately 5 hr) it was 0.7 µmol; with Burkholderia cepacia G4 (induced G4 in the presence of toluene, approximately 5 hr), 0.5 µmol; in the test on Burkholderia cepacia G4 (toluene-induced G4, pure BME, first hour) it was 8 µmol.
In the case of `CC=CC` [2-butene], the results for the “Specific activity of toluene monooxygenase, substrate degraded” value (from here on “Specific activity”) in test [4] (setting [11]) and in test [3] (setting [12]) were 0.17 μM substrate degraded/minute/mg protein and 0.12 μM substrate degraded/minute/mg protein, respectively. Besides, the added substrate degraded entry in test [4] and in test [5] (in 20 hours) was “Greater than 95%” throughout. In addition, the “time to degrade all the substrate” value in test [5] was determined as 3.5 h. For the same molecule, the “alkene degraded that was detected as the epoxide product” value in the test on Burkholderia cepacia G4 is reported as 43%.
As to `C=C(Cl)CCl` [2,3-chloropropene, 2,3-dichloropropene], the “amount oxidized, less than the amount of 2-chloropropene degraded by the same strain” value turned out to be 66.0% in test [4], 75.6% in [3] (ENVBF1) and 95.2% in [5]. The “Specific activity” value in [4] (setting [13]) was 0.12 μM substrate degraded/minute/mg protein; in test [3] (ENVBF1, rate determined after 60 minutes of incubation), 0.08 μM substrate degraded/minute/mg protein; in test [5] (setting [13]), 0.01 μM substrate degraded/minute/mg protein; in the test with Burkholderia cepacia G4 (G4, rate determined after 60 minutes of incubation) it was 0.23 μM substrate degraded/minute/mg protein. Besides, the “amount degraded compared with the T4MO-expressing organisms” value with Burkholderia cepacia G4 (G4) was “twice as much”. The “epoxide detection during oxidation” value in the test with wild type organisms is reported as “no epoxides were detected”.
Take pentene: in [2], the “epoxide detection during oxidation” value was “no epoxides were detected”.
As for `C=CC=C` [1,3-butadiene], the “monoepoxide formed, R enantiomer” value in test [6] stood at 32.7%; in test [7] it was 22%; in test [8] it was 22.4%; in test [9], 19.6%; in [10], 8.1%. Moreover, the “monoepoxide formed, S enantiomer” value in [6] is given as 67.3%; in test [7] it was 78%; in test [8] it was 77.6%; in test [9], 80.4%; in [10] it was 91.9%. Moreover, the entries for the “Specific activity” value in test [4] (setting [11]) and in [3] (setting [12]) were 0.09 μM substrate degraded/minute/mg protein and 0.13 μM substrate degraded/minute/mg protein, respectively. The added substrate degraded in test [4] and in test [5] (in 20 hours) was 50% in each case. The molecule further came in with a substrate degraded in test [5] (in 20 hours) of 1.1 µmol. For the same molecule, the “time until oxidized to a concentration below the limits of detection” value with Burkholderia cepacia G4 (G4) is at most 6 h. For the same molecule, the “alkene degraded that was detected as the epoxide product” value in the test on Burkholderia cepacia G4 was above 95%.
For octadiene, the “degradation by the clone of T4MO” value in [1] is on record as “did not oxidize”. Further, in test [2], the “degradation compared with the wild type strains” value is on record as “at a greater rate than the wild type strains” and the “epoxide detection during oxidation” value is given as “no epoxides were detected”. In addition, in the test on wild type organisms, the “epoxide detection during oxidation” value was “no epoxides were detected”.
With `C=C(C)Cl` [2-chloropropene], the substrate degraded was found to be 4 µmol in test [4] (first 3 hours of incubation); 2.3 µmol in [3] (ENVBF1, first 3 hours of incubation); 6.3 µmol in [3] (ENVBF1, following 17 hours); 2.1 µmol in test [5] (first 3 hours of incubation). In addition, the “Specific activity” value in test [4] (setting [11]) is 0.18 μM substrate degraded/minute/mg protein; in test [3] (setting [12]), 0.16 μM substrate degraded/minute/mg protein; in test [5] (setting [11]), 0.07 μM substrate degraded/minute/mg protein. Besides, the additional substrate degraded is 1.0 µmol in test [4] (following 17 hours) and 0.84 µmol in test [5] (following 17 hours). Besides, in the test on wild type organisms, the “epoxide detection during oxidation” value is on record as “no epoxides were detected”.
Consider `C=CCCC` [1-pentene], for which the “monoepoxide formed, R enantiomer” value is 72.5% in [6]; 66.3% in test [7]; 54.2% in test [8]; 64.6% in test [9]; 100% in test [10]. The “monoepoxide formed, S enantiomer” value came out at 27.5% in test [6]; 33.7% in test [7]; 45.8% in [8]; 35.4% in [9]; 0% in test [10]. Besides, the “Specific activity” value is given as 0.15 μM substrate degraded/minute/mg protein in test [4] (setting [11]); 0.05 μM substrate degraded/minute/mg protein in [3] (setting [12]); 0.21 μM substrate degraded/minute/mg protein in [5] (setting [11]); 0.08 μM substrate degraded/minute/mg protein in the test on Burkholderia cepacia G4 (G4, following 30 minutes incubation). The “degradation by the clone of T4MO” value in [1] is “degraded”. Further, the “degradation” value in the test with wild type organisms (all the wild type strains) is reported as “efficiently degraded”.
